{"source": "ChEMBL document CHEMBL4033767", "about": "“Structure-Guided Strategy for the Development of Potent Bivalent ERK Inhibitors” (ACS Med Chem Lett, 2017)", "key": {"[1]": {"target": "T1, Mitogen-activated protein kinase 1 (Homo sapiens, UniProt P28482)", "T1 sequence (P28482 whole entry, the tested form may be a part)": "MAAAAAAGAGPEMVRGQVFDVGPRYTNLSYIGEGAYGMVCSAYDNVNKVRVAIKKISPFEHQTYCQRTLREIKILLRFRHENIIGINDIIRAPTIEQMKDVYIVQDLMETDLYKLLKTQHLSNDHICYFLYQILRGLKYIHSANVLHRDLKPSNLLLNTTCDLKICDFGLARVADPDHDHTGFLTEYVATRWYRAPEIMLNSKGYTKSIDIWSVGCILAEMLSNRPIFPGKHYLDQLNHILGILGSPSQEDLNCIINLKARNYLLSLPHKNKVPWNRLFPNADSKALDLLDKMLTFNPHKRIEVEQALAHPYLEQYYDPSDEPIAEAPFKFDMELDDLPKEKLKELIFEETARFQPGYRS", "experiment": "Binding affinity to non-phosphorylated full length N-terminal His6-tagged/SUMO-fused ERK2 (1 to 360 residues) (unknown origin) by isothermal titration method"}, "[2]": {"target": "Mitogen-activated protein kinase 3 (Homo sapiens) (UniProt P27361)", "sequence (P27361 whole entry, the tested form may be a part)": "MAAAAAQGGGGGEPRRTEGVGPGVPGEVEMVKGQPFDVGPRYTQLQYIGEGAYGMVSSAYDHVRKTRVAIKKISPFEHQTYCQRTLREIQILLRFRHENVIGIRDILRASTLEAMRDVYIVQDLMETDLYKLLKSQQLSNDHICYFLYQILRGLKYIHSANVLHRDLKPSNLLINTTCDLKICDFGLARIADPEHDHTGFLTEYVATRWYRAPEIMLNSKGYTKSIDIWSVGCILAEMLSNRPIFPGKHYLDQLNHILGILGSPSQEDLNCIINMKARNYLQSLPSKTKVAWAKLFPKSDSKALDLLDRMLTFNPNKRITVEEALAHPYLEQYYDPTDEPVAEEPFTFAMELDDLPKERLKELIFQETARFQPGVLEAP", "experiment": "Inhibition of full length wild type human ERK1 (M1 to P379 residues) expressed in bacterial expression system assessed as residual activity at 2 uM by KINOMEscan assay"}, "[3]": {"target": "Mitogen-activated protein kinase 8 (Homo sapiens) (UniProt P45983)", "sequence (P45983 whole entry, the tested form may be a part)": "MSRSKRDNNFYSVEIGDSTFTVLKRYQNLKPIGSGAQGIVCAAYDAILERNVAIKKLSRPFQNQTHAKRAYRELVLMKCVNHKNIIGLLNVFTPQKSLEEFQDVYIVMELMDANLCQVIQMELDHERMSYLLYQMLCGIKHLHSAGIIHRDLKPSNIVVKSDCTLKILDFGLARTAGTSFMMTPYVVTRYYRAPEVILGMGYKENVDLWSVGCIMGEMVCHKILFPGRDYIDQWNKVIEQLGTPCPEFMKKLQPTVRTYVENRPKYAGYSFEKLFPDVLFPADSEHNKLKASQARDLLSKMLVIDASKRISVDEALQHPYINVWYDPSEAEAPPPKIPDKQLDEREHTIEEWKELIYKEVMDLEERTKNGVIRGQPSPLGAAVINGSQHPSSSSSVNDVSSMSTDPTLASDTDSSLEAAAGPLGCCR", "experiment": "Inhibition of full length wild type human JNK1 (M1 to Q384 residues) expressed in mammalian expression system assessed as residual activity at 2 uM by KINOMEscan assay"}, "[4]": {"target": "Mitogen-activated protein kinase 9 (Homo sapiens) (UniProt P45984)", "sequence (P45984 whole entry, looked up, the tested form may be a part)": "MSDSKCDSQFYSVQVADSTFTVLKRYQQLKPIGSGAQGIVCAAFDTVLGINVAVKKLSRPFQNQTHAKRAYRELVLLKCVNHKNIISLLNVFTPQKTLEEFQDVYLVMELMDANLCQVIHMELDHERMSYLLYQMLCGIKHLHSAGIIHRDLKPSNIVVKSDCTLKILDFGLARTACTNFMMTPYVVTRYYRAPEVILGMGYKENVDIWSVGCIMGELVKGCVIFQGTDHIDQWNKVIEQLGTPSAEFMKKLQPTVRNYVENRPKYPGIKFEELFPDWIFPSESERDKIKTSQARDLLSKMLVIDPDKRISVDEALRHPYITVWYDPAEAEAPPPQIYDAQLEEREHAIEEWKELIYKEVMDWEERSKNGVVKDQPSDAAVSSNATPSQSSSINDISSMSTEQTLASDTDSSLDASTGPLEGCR", "experiment": "Inhibition of full length wild type human JNK2 (M1 to Q382 residues) expressed in mammalian expression system assessed as residual activity at 2 uM by KINOMEscan assay"}, "[5]": {"target": "Mitogen-activated protein kinase 10 (Homo sapiens) (UniProt P53779)", "sequence (P53779 whole entry, the tested form may be a part)": "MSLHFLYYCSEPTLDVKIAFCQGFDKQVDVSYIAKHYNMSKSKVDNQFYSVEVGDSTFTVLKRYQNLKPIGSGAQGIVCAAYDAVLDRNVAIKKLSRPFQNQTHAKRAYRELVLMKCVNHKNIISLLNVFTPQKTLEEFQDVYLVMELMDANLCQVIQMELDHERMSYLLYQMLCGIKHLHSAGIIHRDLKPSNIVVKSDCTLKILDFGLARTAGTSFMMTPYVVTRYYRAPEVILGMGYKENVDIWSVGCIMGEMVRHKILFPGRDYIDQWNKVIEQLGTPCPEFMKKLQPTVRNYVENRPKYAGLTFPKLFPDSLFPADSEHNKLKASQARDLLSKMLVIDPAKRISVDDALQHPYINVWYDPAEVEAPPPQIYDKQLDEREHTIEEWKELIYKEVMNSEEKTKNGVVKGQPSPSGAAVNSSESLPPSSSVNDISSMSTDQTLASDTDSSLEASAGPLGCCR", "experiment": "Inhibition of full length wild type human JNK3 (M1 to Q382 residues) expressed in mammalian expression system assessed as residual activity at 2 uM by KINOMEscan assay"}, "[6]": {"target": "Mitogen-activated protein kinase 14 (Homo sapiens) (UniProt Q16539)", "sequence (Q16539 whole entry, the tested form may be a part)": "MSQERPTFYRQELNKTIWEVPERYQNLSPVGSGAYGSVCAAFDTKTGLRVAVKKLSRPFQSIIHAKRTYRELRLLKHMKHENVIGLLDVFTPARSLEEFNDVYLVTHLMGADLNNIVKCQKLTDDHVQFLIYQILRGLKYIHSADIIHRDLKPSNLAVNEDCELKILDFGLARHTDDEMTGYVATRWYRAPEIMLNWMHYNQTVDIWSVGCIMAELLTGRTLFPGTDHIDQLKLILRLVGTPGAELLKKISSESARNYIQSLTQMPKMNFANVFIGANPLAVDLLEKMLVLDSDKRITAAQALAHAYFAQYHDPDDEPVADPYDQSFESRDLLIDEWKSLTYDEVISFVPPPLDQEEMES", "experiment": "Inhibition of full length wild type human p38alpha (M1 to S360 residues) expressed in bacterial expression system assessed as residual activity at 2 uM by KINOMEscan assay"}, "[7]": {"target": "Mitogen-activated protein kinase 11 (Homo sapiens) (UniProt Q15759)", "sequence (Q15759 whole entry, the tested form may be a part)": "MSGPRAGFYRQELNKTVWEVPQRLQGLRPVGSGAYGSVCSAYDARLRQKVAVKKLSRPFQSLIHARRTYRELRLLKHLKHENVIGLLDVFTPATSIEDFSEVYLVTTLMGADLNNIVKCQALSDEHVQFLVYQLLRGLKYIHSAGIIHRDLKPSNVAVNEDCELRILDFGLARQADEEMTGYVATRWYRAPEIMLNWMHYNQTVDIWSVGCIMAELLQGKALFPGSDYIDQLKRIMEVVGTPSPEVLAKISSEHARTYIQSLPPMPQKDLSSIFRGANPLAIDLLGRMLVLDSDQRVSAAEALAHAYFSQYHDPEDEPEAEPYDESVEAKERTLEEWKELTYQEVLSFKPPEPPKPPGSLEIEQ", "experiment": "Inhibition of full length wild type human p38beta (M1 to Q364 residues) expressed in bacterial expression system assessed as residual activity at 2 uM by KINOMEscan assay"}, "[8]": {"target": "Glycogen synthase kinase-3 beta (Homo sapiens, UniProt P49841)", "sequence (P49841 whole entry, the tested form may be a part)": "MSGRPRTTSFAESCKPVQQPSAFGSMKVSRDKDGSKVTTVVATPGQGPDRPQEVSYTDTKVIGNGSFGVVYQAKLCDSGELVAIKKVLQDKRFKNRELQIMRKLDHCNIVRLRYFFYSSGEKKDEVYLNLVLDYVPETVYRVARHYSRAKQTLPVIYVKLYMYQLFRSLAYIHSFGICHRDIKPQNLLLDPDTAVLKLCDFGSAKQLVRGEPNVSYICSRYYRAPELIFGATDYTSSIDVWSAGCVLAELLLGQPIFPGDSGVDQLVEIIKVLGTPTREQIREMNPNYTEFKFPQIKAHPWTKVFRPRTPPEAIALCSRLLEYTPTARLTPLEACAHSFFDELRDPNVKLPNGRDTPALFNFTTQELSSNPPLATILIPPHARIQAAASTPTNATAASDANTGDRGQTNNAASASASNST", "experiment": "Binding affinity to full length wild type human GSK3beta (M1 to T433 residues) expressed in mammalian expression system by KINOMEscan assay"}, "[9]": {"target": "T1, Mitogen-activated protein kinase 1", "experiment": "Inhibition of phosphorylated ERK2 (unknown origin) using myelin basic protein as substrate after 2 hrs in presence of ATP by ADP-glo assay"}, "Homo sapiens": {"organism": "Homo sapiens", "experiment": "Selectivity ratio of compound affinity for C-terminal FLAG-tagged human ERK2 to C-terminal FLAG-tagged human p38 alpha"}}, "note": "Residues, ends and D or L forms follow the SMILES beside them. *: point of attachment. X1 = Nc1nn(CC(=O)*)c2nnc(-c3c(-c4ccccc4)nn4ccccc34)cc12; PEG4 = NCCOCCOCCOCCOCCC(=O)O"}
{"molecule": "H-EIIKLAPPPKKA-OH", "values": [{"measurement": "Kd", "setting": "[1]", "value": 18000, "unit": "nM"}]}
{"molecule": "CC[C@H](C)[C@H](NC(=O)[C@H](CO)NC(=O)[C@H](CO)NC(=O)[C@H](CCC(=O)O)NC(=O)[C@@H](NC(=O)[C@@H]1CCCN1C(=O)[C@H](CCCCN)NC(=O)[C@H](CC(C)C)NC(=O)[C@H](CCC(N)=O)NC(=O)[C@H](C)NC(=O)[C@@H](NC(=O)CNC(=O)C(N)CCCCn1cc(CCCCNC(=O)CCCCCn2nc(N)c3cc(-c4c(-c5ccccc5)nn5ccccc45)nnc32)nn1)[C@@H](C)O)[C@@H](C)CC)C(=O)N[C@@H](CC(C)C)C(=O)N[C@@H](C)C(=O)N[C@@H](CCC(N)=O)C(=O)N[C@@H](CCCNC(=N)N)C(=O)N[C@@H](CCCNC(=N)N)C(=O)N[C@H](C(=O)N[C@@H](CCCNC(=N)N)C(=O)N[C@@H](CCCCN)C(=O)O)C(C)C", "note": "(some centres not stated)", "values": [{"measurement": "Activity", "setting": "[2]", "value": 0.15, "unit": "%"}, {"measurement": "Activity", "setting": "[3]", "value": 0.1, "unit": "%"}, {"measurement": "Activity", "setting": "[4]", "value": 0.1, "unit": "%"}, {"measurement": "Activity", "setting": "[5]", "value": 0.1, "unit": "%"}, {"measurement": "Activity", "setting": "[6]", "value": 0.25, "unit": "%"}, {"measurement": "Activity", "setting": "[7]", "value": 11, "unit": "%"}, {"measurement": "Kd", "setting": "[8]", "value": "> 2500", "unit": "nM"}]}
{"molecule": "Nc1nn(CC(=O)O)c2nnc(-c3c(-c4ccccc4)nn4ccccc34)cc12", "values": [{"measurement": "IC50", "setting": "[9]", "value": 12300, "unit": "nM"}]}
{"molecule": "H-PQLKPIESSILAQRRVRKLPSTTL-OH", "values": [{"measurement": "Selectivity ratio", "setting": "Homo sapiens", "value": 20}]}
{"molecule": "CC[C@H](C)[C@H](NC(=O)[C@H](CCC(=O)O)NC(=O)CCOCCOCCOCCOCCNC(=O)Cn1nc(N)c2cc(-c3c(-c4ccccc4)nn4ccccc34)nnc21)C(=O)N[C@H](C(=O)N[C@@H](CCCCN)C(=O)N[C@@H](CC(C)C)C(=O)N[C@@H](C)C(=O)N1CCC[C@H]1C(=O)N1CCC[C@H]1C(=O)N1CCC[C@H]1C(=O)N[C@@H](CCCCN)C(=O)N[C@@H](CCCCN)C(=O)N[C@@H](C)C(=O)O)[C@@H](C)CC", "note": "({X1-PEG4}-EIIKLAPPPKKA-OH)", "values": [{"measurement": "IC50", "setting": "[9]", "value": 700, "unit": "nM"}]}
{"molecule": "CC[C@H](C)[C@H](NC(=O)[C@H](CO)NC(=O)[C@H](CO)NC(=O)[C@H](CCC(=O)O)NC(=O)[C@@H](NC(=O)[C@@H]1CCCN1C(=O)[C@H](CCCCN)NC(=O)[C@H](CC(C)C)NC(=O)[C@H](CCC(N)=O)NC(=O)[C@H](C)NC(=O)[C@@H](NC(=O)CCOCCOCCOCCOCCNC(=O)Cn1nc(N)c2cc(-c3c(-c4ccccc4)nn4ccccc34)nnc21)[C@@H](C)O)[C@@H](C)CC)C(=O)N[C@@H](CC(C)C)C(=O)N[C@@H](C)C(=O)N[C@@H](CCC(N)=O)C(=O)N[C@@H](CCCNC(=N)N)C(=O)N[C@@H](CCCNC(=N)N)C(=O)N[C@H](C(=O)N[C@@H](CCCNC(=N)N)C(=O)N[C@@H](CCCCN)C(=O)N[C@@H](CCCNC(=N)N)C(=O)N[C@@H](CCCCN)C(=O)N[C@@H](CCCCN)C(=O)N[C@@H](CCCNC(=N)N)C(=O)N[C@@H](CCCNC(=N)N)C(=O)N[C@@H](CCC(N)=O)C(=O)N[C@@H](CCCNC(=N)N)C(=O)N[C@@H](CCCNC(=N)N)C(=O)N[C@@H](CCCNC(=N)N)C(=O)O)C(C)C", "note": "({X1-PEG4}-TAQLKPIESSILAQRRVRKRKKRRQRRR-OH)", "values": [{"measurement": "IC50", "setting": "[9]", "value": 14, "unit": "nM"}]}
